Among the data in the OligoGym collection are target mRNA inhibition values, retold here.

After the bases stand the sugars from the 5' end (letter, count) and the backbone: PS all phosphorothioate, else s phosphorothioate and o phosphodiester by linkage. Methylation of C is not given here. e = 2'-O-(2-methoxyethyl) (MOE); k = constrained ethyl (cEt); d = 2'-deoxy (DNA); m = 2'-O-methyl

The data set addresses HSD17B13. The following applies: ASO, HepaRG.

Consider “TTTAAAATAGAGTCGG (sugars kkdddddddddkekek, PS)”, for which the target mRNA inhibition (1 µM) came to 43%. On the same count and under the same terms, then AGTGAACATACATTGT (sugars k3 d10 k3, PS), with 48%.

Regarding “AAGAGTCAGTATCCTC (sugars k3 d9 k3 e1, PS)”, the target mRNA inhibition (1 µM) was 67%. Regarding CAAAACAAGATTAGTC (sugars k3 d10 k3, PS), the target mRNA inhibition (1 µM) was determined as 18%. The same measure, in the same setting: under TTAGAATACGCTGAGA (sugars k3 d10 k3, PS) stands 48%; under TACAGTTCCTTTTCCT (sugars k3 d10 k3, PS), 68%; under CAAACCTTGAATGAGT (sugars k3 d10 k3, PS), 53%. TAAAATATGTCCAGGT (sugars k3 d10 k3, PS) gave a target mRNA inhibition (1 µM) of 75%. Still for that read-out and setting: then ATGGTAAGGAGTAGTG (sugars k3 d10 k3, PS), with 17%; and ATCTATTATGCACTCT (sugars k3 d10 k3, PS), with 24%. On the same count and under the same terms, then “ACTTGATCTCTTAGCT (sugars k3 d1 m1 d8 k3, PS)”, with 39%; and CGACTTCATCTGTCTC (sugars k3 d10 k3, PS), with 19%. The same measure, in the same setting: under CAGAACCAATATGCTC (sugars k3 d10 k3, PS) stands 56%; under CAGGGTGGTAACGGTG (sugars k3 d10 k3, PS), 55%.

TAGCTGTGCACTCATT (sugars k3 d10 k3, PS): the target mRNA inhibition (1 µM) was determined as 40%. Same read-out and setting: then CATACGCATGCGCAGT (sugars k3 d10 k3, PS), with 60%. On the same count and under the same terms, under ATTATTTCTTGCGAGA (sugars k3 d10 k3, PS) stands 60%; under AAGGAGCCAGTTATGA (sugars k3 d10 k3, PS), 57%.

For the sequence “TTGGAATGCTACTTGA (sugars kkdddddddddkekek, PS)”, the target mRNA inhibition (1 µM) was 54%.

In the case of TACTAATGTCCAAGGA (sugars k3 d10 k3, PS), the target mRNA inhibition was determined as 4% (0.02 µM); 0% (0.078 µM); 38% (0.313 µM); 77% (1 µM); 64% (1.25 µM); 75% (5 µM). With “TGCTACTTGAACAGTC (sugars k3 d1 m1 d8 k3, PS)”, for the setting “1 µM”, the target mRNA inhibition was 65%. Still for that read-out and setting: under AGAAAGTTCATTCGAA (sugars k3 d10 k3, PS) stands 61%; under “ACGGUGATCAAATGTA (sugars k3 d1 m1 d8 k3, PS)”, 18%. With “CCAACCAAACTTCCAG (sugars kkdddddddddkekek, PS)”, the target mRNA inhibition (1 µM) turned out to be 15%. Regarding AACAGTCTTAAACCTT (sugars k3 d10 k3, PS), the target mRNA inhibition (1 µM) is 82%. Same read-out and setting: then TATAACTGAGCTAGAC (sugars k3 d10 k3, PS), with 53%; and “ACAGATTGGAATGCTA (sugars k3 d1 m1 d8 k3, PS)”, with 70%. Take GAAATATAGAGGGTCC (sugars k3 d10 k3, PS): the target mRNA inhibition (1 µM) was 22%. The same measure, in the same setting: under “ATGTAATAGCCAGTAC (sugars k3 d9 k3 e1, PS)” stands 63%; under TTACAGCATCAAGACA (sugars k3 d10 k3, PS), 46%. For the setting “1 µM”, TGCTGCTAGTGCCAAA (sugars k3 d10 k3, PS) had a target mRNA inhibition of 58%. In turn, CAGGTTGAGATAAAGC (sugars k3 d10 k3, PS) displayed a target mRNA inhibition (1 µM) of 49%. On to TTCTCAAGGAGTACTT (sugars k3 d10 k3, PS), for which the target mRNA inhibition (1 µM) is 76%.

With “AGAAATTCACCTTGAC (sugars k3 d9 k3 e1, PS)”, the target mRNA inhibition (1 µM) was determined as 7%. Regarding CATAGGCTTAGTGTAG (sugars k3 d10 k3, PS), the target mRNA inhibition (1 µM) was determined as 38%. On the same count and under the same terms, under “GCAAGCCAACAGAGAG (sugars k3 d9 k3 e1, PS)” stands 38%; under CTACATGTAAGGTTTT (sugars k3 d10 k3, PS), 11%; under ACCGCGCTTATTAATA (sugars k3 d10 k3, PS), 4%. With GCTCTAATGTTTCTTG (sugars k3 d10 k3, PS), where the note is “1 µM”, the target mRNA inhibition came out at 62%.

As for “GTCGGTCACCTTTCAT (sugars kkdddddddddkekek, PS)”, the target mRNA inhibition (1 µM) worked out at 57%.

For the sequence CATGGCTACAGATTGG (sugars k3 d10 k3, PS), where the note is “1 µM”, the target mRNA inhibition is 54%. Same read-out and setting: then TTAGAAACTGCTCCTC (sugars k3 d10 k3, PS), with 48%; and GAGGCTAGGGAAATCT (sugars k3 d10 k3, PS), with 56%. As for AGCATTCATCAGATGT (sugars k3 d10 k3, PS), the target mRNA inhibition reads like this: (0.02 µM) 0%; (0.078 µM) 12%; (0.313 µM) 40%; (1 µM) 83%; (1.25 µM) 65%; (5 µM) 56%.

Take AATATCCCACAGAACC (sugars k3 d10 k3, PS): the target mRNA inhibition (1 µM) was 60%. Turning to “TGTCCACCTTTAAATG (sugars k3 d9 k3 e1, PS)”, the target mRNA inhibition (1 µM) was 28%. Still for that read-out and setting: under “AATAATAGCTCTATTG (sugars k3 d1 m1 d8 k3, PS)” stands 16%.

In the case of CGTTTATCATATGCTA (sugars k3 d10 k3, PS), the target mRNA inhibition reads like this: (0.02 µM) 9%; (0.078 µM) 29%; (0.313 µM) 57%; (1 µM) 88%; (1.25 µM) 77%; (5 µM) 86%. Under “1 µM”, GAGTGCATCTTAAGAT (sugars k3 d10 k3, PS) displayed a target mRNA inhibition of 43%. On the same count and under the same terms, under GTATCTTAAGAGAAGG (sugars k3 d10 k3, PS) stands 30%.

For the sequence TCTGTATAGCTGCATT (sugars k3 d10 k3, PS), the target mRNA inhibition (1 µM) is 47%. On the same count and under the same terms, under GAATCATTCAGTAGCT (sugars k3 d10 k3, PS) stands 65%; under “CCTGTGTTAGCTTTAA (sugars k3 d9 k3 e1, PS)”, 66%. Still for that read-out and setting: then TTTCATAGGGAGACCA (sugars k3 d10 k3, PS), with 71%. “AGAAATTCACCTTGAC (sugars kkdddddddddkekek, PS)” showed a target mRNA inhibition (1 µM) of 33%.

For the setting “1 µM”, AACAAGAGGATAGTCC (sugars k3 d10 k3, PS) showed a target mRNA inhibition of 54%. Still for that read-out and setting: under AATTCACCTTGACTAA (sugars k3 d10 k3, PS) stands 9%; under TTATATGAGGTCTGTA (sugars k3 d10 k3, PS), 32%. Consider “ACAAUATGGGATGAGG (sugars k3 d1 m1 d8 k3, PS)”, for which the target mRNA inhibition is, setting by setting: (0.02 µM) 0%; (0.078 µM) 2%; (0.313 µM) 0%; (1 µM) 70%; (1.25 µM) 48%; (5 µM) 59%. In the case of AACTAGAACTCCCAAC (sugars k3 d10 k3, PS), the target mRNA inhibition (1 µM) was found to be 0%.

TTATACTTTTCCGTCT (sugars k3 d10 k3, PS) displayed a target mRNA inhibition (1 µM) of 61%. Still for that read-out and setting: under ACCTCTAAGTTAGCCC (sugars k3 d10 k3, PS) stands 28%. Still for that read-out and setting: under CAATAATAATGGGCAG (sugars k3 d10 k3, PS) stands 43%.

Turning to “TTGATCTCTTAGCTGT (sugars k3 d9 k3 e1, PS)”, under “1 µM”, the target mRNA inhibition amounted to 64%. Same read-out and setting: then CTCCAAGGAGTGCATC (sugars k3 d10 k3, PS), with 53%. TAAGAGAAGGTGCACA (sugars k3 d10 k3, PS): the target mRNA inhibition (1 µM) worked out at 12%. Regarding TTTAATACGACTTCCT (sugars k3 d10 k3, PS), the target mRNA inhibition reads like this: (0.02 µM) 0%; (0.078 µM) 0%; (0.313 µM) 27%; (1 µM) 72%; (1.25 µM) 68%; (5 µM) 83%. As to “AGAGTCGGTCACCTTT (sugars kkdddddddddkekek, PS)”, the target mRNA inhibition (1 µM) amounted to 61%.

With “AAGAGTCAGTATCCTC (sugars k3 d1 m1 d8 k3, PS)”, the target mRNA inhibition (1 µM) was found to be 55%. Regarding TAGTTGGTAGCTTGCT (sugars k3 d10 k3, PS), the target mRNA inhibition reads like this: (0.02 µM) 7%; (0.078 µM) 31%; (0.313 µM) 46%; (1 µM) 66%; (1.25 µM) 74%; (5 µM) 94%. For AAGTTCTGATGTCAGA (sugars k3 d10 k3, PS), the target mRNA inhibition (1 µM) stood at 7%. On the same count and under the same terms, then CTTAAACCTTCCCTGT (sugars k3 d10 k3, PS), with 22%; and CTTCATCCTTGGTGCT (sugars k3 d10 k3, PS), with 30%; and AATTAAGATGTCCAGG (sugars k3 d10 k3, PS), with 13%.

Regarding AATATAGCCCTTTCCC (sugars k3 d10 k3, PS), the target mRNA inhibition (1 µM) worked out at 44%. The same measure, in the same setting: under “CGTTTGACTGCTGCTA (sugars kkdddddddddkekek, PS)” stands 48%; under “GTGTTCTTGTTGATAT (sugars kkdddddddddkekek, PS)”, 63%.

Where the note is “1 µM”, TTCCAAATCAGGTAGT (sugars k3 d10 k3, PS) yielded a target mRNA inhibition of 12%. Same read-out and setting: under GTGTAGAATTGTCTGT (sugars k3 d10 k3, PS) stands 42%. Still for that read-out and setting: then GTTTATGTAAGCACAG (sugars k3 d10 k3, PS), with 67%. On to “ACAGATTGGAATGCTA (sugars k3 d9 k3 e1, PS)”, for which the target mRNA inhibition was determined as 18% (0.02 µM); 21% (0.078 µM); 38% (0.313 µM); 68% (1 µM); 62% (1.25 µM); 76% (5 µM).
